For one molecule, Degradation in serum and IL-2 secretion results are on record in patent US20240327493A1 (GEORGE MASON UNIVERSITY, priority 2023, published 2024).

For data set [1] the following is noted: human serum diluted 1:4 in RPMI, MALDI-TOF-MS, up to 6 hours. How it is done:
(§1) Human serum was diluted 1:4 in Gibco RPMI 1640 media (ThermoFisher Scientific, Waltham, MA, USA, Cat. No. 11-875-093) for a total of 1 mL and incubated at 37° C. for 15 minutes prior to time course. Next, 1 μL of the peptide stock was added to warmed serum for a final concentration of […] in the master mix. The rest of the time course was performed at room temperature. For each time point, aliquots of 100 μL were removed from the master mix and added to 200 μL of 3% trifluoroacetic acid. Samples were incubated on ice for 15 minutes before centrifugation at 16,000×g for 2.5 minutes. Supernatants were transferred to a clean tube and prepared for desalting via C18 column by adding 100 μL of sample buffer (20% acetonitrile, 2% trifluoroacetic acid) to supernatants before storage at—20° C. overnight. Samples were then processed through Pierce C18 spin columns (ThermoFisher Scientific, Cat. No. 89870) according to the manufacturer's instructions. Desalted samples were dried under nitrogen and stored at −20° C. until mass spectrometry analysis.
For MALDI-TOF-MS analysis, serum stability samples were reconstituted in 200 μL of 0.1% formic acid. Samples were then diluted 1:10 in a MALDI matrix containing a 50 fmol/μL solution of Angiotensin I as a control. […]

The conditions of data set [2]: human serum diluted 1:4 in RPMI, ESI-MS, 0, 6, 24, 48 hours. How it is done:
Angiotensin I was spiked in and used for normalization.
as §1, with “Desalted samples were dried under nitrogen and stored at −20° C. until mass spectrometry analysis.” left out
For ESI-MS analysis, serum stability samples were run on an Orbitrap Exploris 480 (ThermoFisher Scientific). […] ThermoFisher's Xcalibur 4.0 Data System was used for peptide quantification. […] The samples were batch reprocessed for quantification via peak area. Peptide abundances were normalized based on Angiotensin I abundance and quantified relative to initial abundance.

Data set [3] deals with human PBMCs co-cultured with OVCAR8 cells. Put plainly: Co-culture of OVCAR8 cells and stimulated human PBMCs, 10:1 OVCAR8:PBMC ratio. Format: cell-based. The following applies: MN1.4 450, 100 or 10 μM, 24 hours, FIG. 10A. How it is done:
For this model, PBMCs and cancer cells were both stimulated prior to co-culture to promote expression of PD-1 and PD-L1, respectively.
Stimulation of the PBMCs causes them to release inflammatory cytokines including IL-2 and TNFα,
OVCAR8 cells, generously provided by the Gottesman Lab (National Institutes of Health, Bethesda, MD, USA), and MDA-MB-231 cells (American Type Culture Collection, Rockville, MD, USA) were cultured in Gibco RPMI 1640 media (ThermoFisher Scientific, Cat. No. 11-875-093) supplemented with 10% Gibco fetal bovine serum (ThermoFisher Scientific, Cat. No. 10437028), and 1% penicillin/streptomycin (10,000 U/mL pen, 10 mg/mL strcp) from MilliporeSigma (Burlington, MA, USA, Cat. No. P4333). Cells were cultured at 37° C. and 5% CO2. […]
For co-culture experiments with excess OVCAR8 ratios, OVCAR8 cells were seeded at a density of 2×10^5 cells/mL on a 6-well plate and allowed to adhere overnight. […] On Day 3, concentrations of PBMCs and OVCAR8 cells (harvested from a control well) were measured using the QuadCount Automated Cell Counter (Accuris Instruments). The concentration of PBMCs required for a 10:1 OVCAR8:PBMC ratio was calculated from the OVCAR8 concentration. […]
For experiments analyzed via IL-2 PCR-ELISA, the levels of IL-2 in the collected supernatants were measured using the IL-2 Human ProQuantum Immunoassay Kit (ThermoFisher Scientific, Cat. No. A35603). […]

Entries after “also recorded” stand apart in the source; their conditions may differ. Like-named read-outs stand apart in the source and are kept apart here.

For `CC[C@H](C)[C@@H]1NC(=O)[C@H](CCSC)NC(=O)[C@H](C)NC(=O)[C@H](CCCNC(=N)N)NC(=O)[C@@H](N)CSSC[C@@H](C(=O)O)NC(=O)[C@H]([C@@H](C)CC)NC(=O)[C@H](CCCNC(=N)N)N(C)C(=O)[C@H](CCCCN)NC(=O)[C@H](Cc2ccc(O)cc2)NC(=O)[C@H](CC(=O)O)NC(=O)[C@H](C)NC(=O)CNC(=O)CNC(=O)[C@H](Cc2ccc(O)cc2)NC(=O)[C@H](CO)NC1=O` [SEQ ID NO. 5, CRAMISYGGADYKXIC], the Degradation in serum result in data set [1] is “still present after 6 hours in serum without significant degradation”; in data set [2] it was “not significantly degraded at 48 hours”. The figures for the IL-2 secretion entry in data set [3] and in data set [3] (listed as MN1.4) were “secretion of IL-2 reduced in a dose dependent manner” and “enhanced the suppression of IL-2 secretion by T cells in a dose-dependent manner; also recorded: decreased released IL-2 in a dose dependent manner”, respectively.
